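How tested: cells in 96-well plates exposed to compound for 48 hours at five concentrations. GI50 marks 50% less growth.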 Active and inactive are the calls of the source. No stated cut-off is given here; in the data, active = GI50 up to about 1.1 µM and inactive = higher.
Assays:
Assay in all cases: growth of human tumour cells (NCI), 48 h
[1] = system: A498
[2] = system: ACHN
[3] = system: CAKI-1
[4] = system: COLO 205
[5] = system: HL-60
[6] = system: HOP-62
[7] = system: KM12
[8] = system: MOLT-4
[9] = system: NCI-H226
[10] = system: OVCAR-4
[11] = system: OVCAR-5
[12] = system: OVCAR-8
[13] = system: RPMI-8226
[14] = system: SK-MEL-2
[15] = system: SK-MEL-5
[16] = system: SNB-19
[17] = system: TK-10
[18] = system: UACC-257
[19] = system: MCF7

Measured: GI50

CNC(=O)CN(CC(N)=O)C(N)=O
inactive: [1] > 100 µM | [2] > 100 µM | [3] > 100 µM | [4] > 100 µM | [5] > 100 µM | [6] > 100 µM | [7] > 100 µM | [8] > 100 µM | [9] > 100 µM | [10] > 100 µM | [11] > 100 µM | [12] > 100 µM | [13] > 100 µM | [14] > 100 µM | [15] > 100 µM | [16] > 100 µM | [17] > 100 µM

C[C@H](O)CCC(=O)c1ccoc1
inactive: [1] > 100 µM | [2] > 100 µM | [3] > 100 µM | [4] > 100 µM | [5] > 100 µM | [6] > 100 µM | [7] > 100 µM | [8] > 100 µM | [9] > 100 µM | [10] > 100 µM | [11] > 100 µM | [12] > 100 µM | [13] > 100 µM | [14] > 100 µM | [15] > 100 µM | [16] > 100 µM | [17] > 100 µM | [18] > 100 µM

O=C(Cn1c2c(c3ccccc31)CCCC2)N1CCOCC1
inactive: [1] > 100 µM | [2] > 100 µM | [3] > 100 µM | [4] > 100 µM | [5] > 100 µM | [6] > 100 µM | [19] > 100 µM | [8] > 100 µM | [10] 44.4 µM | [11] 87.3 µM | [12] > 100 µM | [13] > 100 µM | [14] > 100 µM | [15] > 100 µM | [16] > 100 µM | [17] > 100 µM | [18] > 100 µM

CN(C)CCCN1CCc2c([nH]c3ccccc23)C1c1cccnc1 (configuration not stated)
inactive: [1] > 100 µM | [2] > 100 µM | [3] > 100 µM | [4] > 100 µM | [5] > 100 µM | [6] > 100 µM | [7] > 100 µM | [8] > 100 µM | [9] > 100 µM | [10] > 100 µM | [11] > 100 µM | [12] > 100 µM | [13] > 100 µM | [14] > 100 µM | [15] > 100 µM | [16] > 100 µM | [17] > 100 µM | [18] > 100 µM

NC(=S)N1N=C2c3ccccc3CC[C@@H]2[C@@H]1c1ccccc1
inactive: [1] 13.2 µM | [2] 7.94 µM | [3] 5.01 µM | [4] 3.72 µM | [5] 2.86 µM | [6] 5.43 µM | [7] 4.27 µM | [8] 4.05 µM | [9] 4.65 µM | [10] 23.8 µM | [11] 24.3 µM | [12] 9.75 µM | [13] 5.61 µM | [14] 5.92 µM | [15] 3.82 µM | [16] 5.77 µM | [17] 16.8 µM | [18] 9.29 µM

CC(C)OCN/C(N)=N\C#N
inactive: [1] > 100 µM | [2] > 100 µM | [3] > 100 µM | [4] 29.1 µM | [5] > 100 µM | [6] > 100 µM | [7] > 100 µM | [8] > 100 µM | [9] > 100 µM | [10] > 100 µM | [11] > 100 µM | [12] > 100 µM | [13] 24 µM | [14] > 100 µM | [15] > 100 µM | [16] > 100 µM | [17] > 100 µM | [18] > 100 µM

CC(=O)OCCOCBr
inactive: [1] > 100 µM | [2] > 100 µM | [3] > 100 µM | [4] > 100 µM | [5] > 100 µM | [6] > 100 µM | [7] > 100 µM | [9] > 100 µM | [10] > 100 µM | [11] > 100 µM | [12] > 100 µM | [13] > 100 µM | [14] > 100 µM | [15] > 100 µM | [17] > 100 µM | [18] > 100 µM

CCOC(=O)Nn1cnnc1Cc1ccccc1
inactive: [1] > 100 µM | [2] > 100 µM | [3] > 100 µM | [4] > 100 µM | [6] > 100 µM | [7] > 100 µM | [19] > 100 µM | [8] > 100 µM | [9] > 100 µM | [10] > 100 µM | [11] > 100 µM | [12] > 100 µM | [13] > 100 µM | [14] > 100 µM | [15] > 100 µM | [16] > 100 µM | [17] > 100 µM | [18] > 100 µM

Cc1ccc(/C=N/NS(=O)(=O)c2ccccc2)cc1C
inactive: [1] 59.4 µM | [2] > 100 µM | [3] 68.7 µM | [4] > 100 µM | [5] > 100 µM | [6] > 100 µM | [7] > 100 µM | [8] > 100 µM | [9] > 100 µM | [10] > 100 µM | [11] > 100 µM | [12] > 100 µM | [13] > 100 µM | [14] > 100 µM | [15] > 100 µM | [17] > 100 µM | [18] > 100 µM

O=C1C2C=CC(n3[nH]c(=O)n(Cc4ccccc4)c3=O)CC2C(=O)N1c1ccc(Br)cc1 (configuration not stated)
inactive: [1] 56.8 µM | [2] > 100 µM | [3] > 100 µM | [4] > 100 µM | [5] > 100 µM | [6] > 100 µM | [7] > 100 µM | [8] > 100 µM | [9] > 100 µM | [10] > 100 µM | [11] > 100 µM | [12] > 100 µM | [13] > 100 µM | [14] > 100 µM | [15] > 100 µM | [16] > 100 µM | [17] > 100 µM | [18] > 100 µM

O=C(CC1(O)C(=O)Nc2ccccc21)c1ccc(Cl)cc1Cl (configuration not stated)
inactive: [1] > 100 µM | [2] > 100 µM | [3] > 100 µM | [4] > 100 µM | [5] > 100 µM | [8] > 100 µM | [9] 71.6 µM | [10] > 100 µM | [11] > 100 µM | [12] > 100 µM | [13] > 100 µM | [14] > 100 µM | [15] > 100 µM | [16] > 100 µM | [17] > 100 µM | [18] > 100 µM

N#CC(C(=O)CCC(=O)Nc1ccc(Cl)c(Cl)c1)c1ccc(Cl)cc1 (configuration not stated)
inactive: [1] > 100 µM | [2] 17.4 µM | [3] 37.3 µM | [5] 83.9 µM | [6] > 100 µM | [7] 47.5 µM | [8] 53.7 µM | [9] > 100 µM | [10] > 100 µM | [11] 23.9 µM | [12] > 100 µM | [13] 48.2 µM | [14] 22.9 µM | [15] 65.6 µM | [16] > 100 µM | [17] > 100 µM | [18] > 100 µM

CCOc1ccc(NC(=O)C2=C(C)NC(C)=C(C(=O)Nc3ccc(OCC)cc3)C2c2ccc([N+](=O)[O-])cc2)cc1
inactive: [1] 6.32 µM | [2] 21.1 µM | [3] 30 µM | [4] 17.8 µM | [5] 18.3 µM | [6] 36.1 µM | [7] 29.9 µM | [8] 7.1 µM | [9] 26.8 µM | [10] 9.29 µM | [11] 31.8 µM | [12] 35 µM | [13] 13.8 µM | [14] 16.2 µM | [15] 15.3 µM | [16] 36 µM | [17] 17.9 µM | [18] 39.2 µM

O=C(Nc1ccccc1-c1nn(C(=S)Nc2ccccc2)c(=S)n(C(=S)Nc2ccccc2)c1=O)C(F)(F)F
inactive: [1] 22.1 µM | [2] 24.4 µM | [3] 31.4 µM | [4] 17.5 µM | [5] 20.9 µM | [6] 29.3 µM | [7] 17.3 µM | [8] 7.85 µM | [9] 17.2 µM | [10] 17.1 µM | [11] 49.9 µM | [12] 23.9 µM | [13] 11.1 µM | [14] 22.2 µM | [15] 11.7 µM | [16] 35.4 µM | [17] 35.3 µM | [18] 14.2 µM

O=c1[nH]c(=O)n(C2OC(CO)C(O)C2O)cc1OCC(F)(F)F (configuration not stated)
inactive: [1] > 100 µM | [2] > 100 µM | [3] > 100 µM | [4] > 100 µM | [5] > 100 µM | [6] > 100 µM | [7] > 100 µM | [8] > 100 µM | [9] > 100 µM | [10] > 100 µM | [11] > 100 µM | [12] > 100 µM | [13] > 100 µM | [14] > 100 µM | [15] > 100 µM | [16] > 100 µM | [17] > 100 µM | [18] > 100 µM

C[n+]1c(-c2ccc(/C=N/N=C/c3ccc(-c4cn5ccccc5[n+]4C)cc3)cc2)cn2ccccc21
inactive: [2] > 100 µM | [4] > 100 µM | [5] > 100 µM | [6] > 100 µM | [7] > 100 µM | [19] > 100 µM | [8] > 100 µM | [10] > 100 µM | [11] > 100 µM | [12] > 100 µM | [13] > 100 µM | [15] > 100 µM | [16] > 100 µM | [17] > 100 µM | [18] > 100 µM

Source: ChEMBL document CHEMBL1201862, “PubChem BioAssay data set” (2004)
